In ChEMBL document CHEMBL3045592, “Studies of O,O-dimethyl α-(2,4-dichlorophenoxyacetoxy)ethylphosphonate (HW02) as a new herbicide. 1. Synthesis and herbicidal activity of HW02 and analogues as novel inhibitors of pyruvate dehydrogenase complex” (J Agric Food Chem, 2011):

Columns and labels:
Type in all cases: functional
Echinochloa crus-galli [1] = assay: Pre-emergence herbicidal activity against Echinochloa crus-galli (barnyard grass) assessed as growth inhibition at 1500 ai g/ha after 20 days by green house test
Echinochloa crus-galli [2] = assay: Post-emergence herbicidal activity against Echinochloa crus-galli (barnyard grass) assessed as growth inhibition at 1500 ai g/ha after 20 days by green house test
Medicago sativa [3] = assay: Post-emergence herbicidal activity against Medicago sativa (alfalfa) assessed as growth inhibition at 1500 ai g/ha after 20 days by green house test
Medicago sativa [4] = assay: Pre-emergence herbicidal activity against Medicago sativa (alfalfa) assessed as growth inhibition at 1500 ai g/ha after 20 days by green house test
Amaranthus retroflexus [5] = assay: Post-emergence herbicidal activity against Amaranthus retroflexus assessed as growth inhibition at 1500 ai g/ha after 20 days by green house test
[6] = test system: Brassica rapa subsp. oleifera; assay: Post-emergence herbicidal activity against Brassica rapa subsp. oleifera Si Yue Man assessed as growth inhibition at 1500 ai g/ha after 20 days by green house test
Digitaria sanguinalis [7] = assay: Pre-emergence herbicidal activity against Digitaria sanguinalis (hairy crabgrass) assessed as growth inhibition at 1500 ai g/ha after 20 days by green house test
[8] = test system: Brassica rapa subsp. oleifera; assay: Pre-emergence herbicidal activity against Brassica rapa subsp. oleifera Si Yue Man assessed as growth inhibition at 1500 ai g/ha after 20 days by green house test
Digitaria sanguinalis [9] = assay: Post-emergence herbicidal activity against Digitaria sanguinalis (hairy crabgrass) assessed as growth inhibition at 1500 ai g/ha after 20 days by green house test
Amaranthus retroflexus [10] = assay: Pre-emergence herbicidal activity against Amaranthus retroflexus assessed as growth inhibition at 1500 ai g/ha after 20 days by green house test

Row | SMILES | growth inhibition (GI) (Echinochloa crus-galli [1]) | growth inhibition (GI) (Echinochloa crus-galli [2]) | growth inhibition (GI) (Medicago sativa [3]) | growth inhibition (GI) (Medicago sativa [4]) | growth inhibition (GI) (Amaranthus retroflexus [5]) | growth inhibition (GI) [6] | growth inhibition (GI) (Digitaria sanguinalis [7]) | growth inhibition (GI) [8] | growth inhibition (GI) (Digitaria sanguinalis [9]) | growth inhibition (GI) (Amaranthus retroflexus [10])
1 | COP(=O)(OC)C(C)OC(=O)COc1ccc(Br)cc1 (stereo not given) | <=50% | <=50% | 50% | <=50% | 50% | 75% | <=50% | <=50% | <=50% | <=50%
2 | COP(=O)(OC)C(C)OC(=O)COc1ccccc1F (stereo not given) | <=50% | <=50% | <=50% | <=50% | <=50% | <=50% | <=50% | <=50% | <=50% | <=50%
3 | COP(=O)(OC)C(OC(=O)COc1ccccc1[N+](=O)[O-])c1ccccc1 (stereo not given) | <=50% | <=50% | <=50% | <=50% | <=50% | <=50% | <=50% | <=50% | <=50% | <=50%
4 | COP(=O)(OC)C(C)OC(=O)COc1cc(C)ccc1Cl (stereo not given) | <=50% | <=50% | <=50% | <=50% | <=50% | <=50% | <=50% | <=50% | 50% | <=50%
5 | COP(=O)(OC)C(OC(=O)COc1ccccc1[N+](=O)[O-])c1cccc([N+](=O)[O-])c1 (stereo not given) | <=50% | <=50% | <=50% | <=50% | <=50% | <=50% | <=50% | <=50% | <=50% | <=50%
6 | COP(=O)(OC)C(OC(=O)COc1cccc(C)c1C)c1ccccc1 (stereo not given) | 75% | 50% | 50% | 75% | <=50% | 75% | <=50% | 90% | <=50% | 50%
7 | COP(=O)(OC)C(OC(=O)COc1ccc(F)cc1Cl)c1ccccc1 (stereo not given) | 90% | 75% | 75% | 90% | 90% | 75% | 90% | 90% | 50% | 90%
8 | COP(=O)(OC)C(C)OC(=O)COc1ccc(Br)cc1Br (stereo not given) | <=50% | <=50% | 90% | 75% | 90% | 90% | <=50% | <=50% | <=50% | <=50%
9 | COP(=O)(OC)C(OC(=O)COc1ccc(C(F)(F)F)cc1[N+](=O)[O-])c1ccccc1 (stereo not given) | <=50% | <=50% | <=50% | <=50% | <=50% | <=50% | <=50% | <=50% | <=50% | <=50%
10 | COP(=O)(OC)C(OC(=O)COc1ccccc1)c1ccccc1 (stereo not given) | <=50% | <=50% | <=50% | <=50% | <=50% | <=50% | <=50% | <=50% | <=50% | <=50%
11 | COP(=O)(OC)C(OC(=O)COc1ccc(C(F)(F)F)cc1)c1ccccc1 (stereo not given) | <=50% | <=50% | <=50% | <=50% | <=50% | <=50% | <=50% | <=50% | <=50% | <=50%
12 | COP(=O)(OC)C(OC(=O)COc1ccc(F)cc1)c1cccc([N+](=O)[O-])c1 (stereo not given) | 50% | 50% | 50% | 75% | 75% | 50% | 90% | <=50% | 50% | 75%
13 | COP(=O)(OC)C(C)OC(=O)COc1cc(F)cc(F)c1 (stereo not given) | <=50% | <=50% | <=50% | <=50% | <=50% | <=50% | <=50% | <=50% | <=50% | <=50%
14 | COP(=O)(OC)C(OC(=O)COc1c(Cl)cccc1Cl)c1cccc([N+](=O)[O-])c1 (stereo not given) | <=50% | <=50% | <=50% | <=50% | <=50% | <=50% | <=50% | <=50% | <=50% | <=50%
15 | COP(=O)(OC)C(OC(=O)COc1cccc(C)c1)c1ccccc1 (stereo not given) | <=50% | <=50% | 50% | 75% | 50% | 50% | <=50% | 75% | <=50% | 75%
16 | COP(=O)(OC)C(C)OC(=O)COc1ccc(C)cc1 (stereo not given) | 50% | 50% | 50% | 75% | 50% | 50% | <=50% | 75% | <=50% | 75%
17 | COP(=O)(OC)C(OC(=O)COc1ccc(F)c(Cl)c1)c1ccccc1 (stereo not given) | 75% | 50% | 50% | 75% | 75% | 75% | 90% | 90% | <=50% | 90%
